Six compounds from patent publication US20150031686A1, “PHENYL-OXAZOLYL DERIVATIVES, PREPARATION METHOD THEREOF, AND RELATED APPLICATION OF THE PHENYL-OXAZOLYL DERIVATIVES AS AN IMPDH INHIBITOR” (INSTITUTE OF MEDICINAL BIOTECHNOLOGY, CHINESE ACADEMY OF …, priority 2012, published 2015) can be followed below.

Values after ≈ are worked out from the molar mass of the structure shown. A value given as a limit tells only on which side of the number the result lay.

The test system of data set [1] is hepatitis B virus strain A64 (lamivudine resistance). The data set is described as follows: in vitro. Particulars: human.
Data set [2] shares this test system. Kind of data set: microbe, parasite or virus in culture. The conditions noted are these: read-out: IC50 (50% inhibition concentration of the virus).
Data set [3] deals with human hepatoma cell HepG2. The data set is described as follows: In vitro human hepatoma cell HepG2 inhibitory activity (MTT). In kind it is cell-based. Particulars: Homo sapiens, HepG2, 48 h. From the text:
(§1) According to the progress in the studies on anticancer drugs using IMPDH as a target, the present invention measured inhibitory activities of the compounds of present invention against human hepatoma cell HepG2 and human lung adenocarcinoma cell A549, respectively, the measured results are shown in Table 5:
In Vitro Human Hepatoma Cell HepG2 Inhibitory Activity Measurement
Collect well growing tumor cells, prepare 6×10^4/ml cell suspension in RPMI-1640 or DMEM culture medium containing 10% FBS, seed in 96-well plates, 100 μl suspension each well, incubate at 37° C. under 5% CO2 atmosphere for 24 h, add the test solution (final concentration of drug: 0.625, 1.25, 2.5, 5.0, 10 μg/ml), for each concentration set three parallel holes, set positive control (cisplatin 10, 1, 0.1 μg/ml) and a blank control simultaneously. After culture for 48 h discard the supernatants, add into each well 10 μl MTT solution (5 mg/ml, prepared with RPMI-1640 medium), continue culturing for 4 It, add into each hole 100 μl acidified isopropanol cell lysate, culture overnight, measure absorbance (A) values with Bio-Tek MQX200 type microplate reader with the detection wavelength at 540 nm, and reference wavelength 450 nm. Calculate the inhibition rate as follows: inhibition rate=(Ablank−Asample)/Ablank control×100%. Use Graphpad Prism 5 statistical software to calculate IC50.

In data set [4] the test system is hepatitis B virus. Particulars: cell line 2215, hepatitis B virus.
In data set [5] the test system is Coxsackie virus type B6 (COX-B6). The data set is described as follows: Anti-Coxsackie virus type B6 (COX-B6) activity, CPE in Vero cells. It is filed as cell-based. Particulars: Reed-Muench. As for the experimental part: With Vero (African green monkey kidney) cells as viral hosts, inhibitory effects of the compounds of present invention on the grades of pathological lesions by coxsackievirus B3 (COX-B3), B6 (COX-B6) viruses in Vero cells were determined. The measured results of viral inhibitory activity of the compounds are shown in Table 3 and Table 4; wherein RBV is the control drug ribavirin. The inhibitory activities of the measured compounds against coxsackievirus B3, B6 were stronger than the control.
Screening of Anti-B3, B6 Type Coxsackie Viruses (COX-B3, COX-B6) Activity of the Samples
Prepare stock solutions of COX-B3 (or COX-B6) virus strains as well as tested compounds in DMSO before use. Before tests, dilute the stock solution with culture solution into a certain concentration and then dilute 3 times to make a total of eight dilutions. Use ribavirin (RBV) as positive control. Test procedures are as follows: seed Vero cells into 96-well culture plates, infect with 10^−5 Coxsackie virus of B3 (or B6) type, 24 hours later; adsorb subsequently for 2 hours, then discard the virus solution, add in the sample compounds and the positive control according to the abovementioned dilutions, set cell control wells and virus control wells simultaneously. When the cytopathic effect (CPE) of cells in the virus control wells reach 4+, observe CPE of the cells in each group. Use Reed-Muench method to calculate 50% inhibitory concentration (IC50) of the sample compounds against coxsackie virus B3 (or B6) type.

In another data set the test system is IMPDH. The data set is described as follows: IMPDH inhibition activity (A340, IMP substrate, NAD). It is filed as biochemical. The conditions noted are these: compound at 10 μg/mL. On the procedure:
Measurement of IMPDH Inhibitor Activity
In 96-well plates, use IMP as the substrate and NAD, NADH as chromogenic agents to determine the activity of the compounds described in this invention as IMPDH inhibitor. Add 2 μl of each of the tested sample solution, 20 μl enzyme extract and 30 μl IMP into a sample well in the 96-well plates; 2 μl DMSO and 30 μl IMP solution into a control well; 2 μl DMSO and 20 μl IMPDH buffer instead of the enzyme extract and 30 μl IMP solution into a blank well. Keep plates at constant 37° C. for 15 min, measure absorbance values A340 (OD1) of the solutions in various wells; subsequently, add into each well with 50 μl NAD, keep at constant 37° C. for 50 min, then measure A340 (OD2) values. Calculate IMPDH inhibition rates of samples as follows: Inhibition (%)=[(OD2−OD1)control−(OD2−OD1)Sample]/[(OD2−OD1)control−(OD2−OD1)Blank]×100%.

Data set [6] has as its system human lung adenocarcinoma cell A549. The data set is described as follows: In vitro human lung adenocarcinoma cell A549 inhibitory activity (MTT). It is filed as cell-based. The conditions noted are these: Homo sapiens, A549, 48 h.
Source text: as §1
In Vitro Human Lung Adenocarcinoma Cell A549 Inhibitory Activity Measurement
Cell lines: human lung adenocarcinoma cell A549. Collect well growing tumor cells, prepare cell suspension with Ham's F12 culture solution containing 10% fetal calf serum medium, seed the suspension in 96-well plates, each well 100 μl suspension at 5000 cells/well, incubate at 37° C., under 5% CO2 atmosphere, 24 h later, add 2×drug solution […], each concentration in three parallel holes, set the blank control simultaneously. After culture for 48 h, add 20 μl (5 mg/ml) MTT to each well, culture 4 h, discard the supernatants. Measure absorbance (A) values using Bio-Rad 680 microplate reader at a detection wavelength of 570 nm, the survival rate (%) is calculated as follows: AsampleAblank control×100%. Use statistical software Graphpad Prism5 to calculate IC50. After primary screening of all samples, adjust the concentration gradient of the samples with IC50<100 μg/ml to do additional screenings, which are carried out with two parallel determinations.

The test system of data set [7] is hepatitis B virus strain A64 (lamivudine resistance).
Data set [8] relates to hepatitis B virus. Kind of data set: in vitro. Particulars: human.
Data set [9] has as its system hepatitis B virus. Kind of data set: microbe, parasite or virus in culture. The conditions noted are these: read-out: IC50 (50% inhibition concentration of the virus).
Data set [10] concerns Coxsackie virus type B3 (COX-B3). Kind of data set: Anti-Coxsackie virus type B3 (COX-B3) activity, CPE in Vero cells. In kind it is cell-based. The conditions noted are these: Reed-Muench. In a few lines: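 Vero cells infected with 10^−5 COX-B3 or COX-B6 virus, adsorbed 2 h; virus removed, then compounds added at eight 3-fold dilutions, ribavirin as positive control. CPE scored when virus controls reached 4+; IC50 by Reed-Muench.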

In the next data set the test system is mouse spleen cell. Kind of data set: Mouse spleen cell proliferation inhibiting activity. It is filed as cell-based. Particulars: mouse spleen cells. An excerpt: The present invention also provides the results of experimental studies on the biological activity of said compounds.

In the case of `COc1cc(NCc2ccc(Cl)s2)ccc1-c1cnco1` [Compound 4, N-(5-chlorothien-2-ylmethyl)-3-methoxy-4-(oxazol-5-yl) aniline], the selectivity ratio in [1] was more than 28.1; in the data set with hepatitis B virus [8], 36.8. Also, the IC50 in [2] came to 1.78 µg/mL (≈ 5.55 µM); in data set [3], 29.1 µg/mL (≈ 90.7 µM); in data set [5], 0.27 µg/mL (≈ 0.842 µM); in [6], 16 µg/mL (≈ 50 µM); in the data set on hepatitis B virus [9] it was 2.72 µg/mL (≈ 8.48 µM); in data set [10], 0.44 µg/mL (≈ 1.37 µM). Moreover, the figures for the “TC50 (half toxic concentration)” value (with hepatitis B virus [4]; in data set [7]) were 100 µg/mL (≈ 312 µM) and more than 50 µg/mL, respectively. The “inhibition rate (%) 10 μg/mL” value in the data set with IMPDH is listed as 74.9%.
With `COc1cc(NCc2ccc(C)o2)ccc1-c1cnco1` [Compound 42, N-(5-methylfuran-2-ylmethyl)-3-methoxy-4-(oxazol-5-yl) aniline], the IC50 in data set [3] was found to be 31.3 µg/mL (≈ 110 µM); in data set [5], 1.93 µg/mL (≈ 6.79 µM); in data set [6], 20.7 µg/mL (≈ 72.8 µM); in [10] it was 1.43 µg/mL (≈ 5.03 µM). Also, the “inhibition rate (%) 10 μg/mL” value with IMPDH is recorded as 60.7%.
On the same counts, the results for `COc1cc(NCc2c[nH]c3ccccc23)ccc1-c1cnco1` [Compound 53, N-(1H-indol-3-ylmethyl)-3-methoxy-4-(oxazol-5-yl) aniline] are 22.5 µg/mL (≈ 70.6 µM), 7.41 µg/mL (≈ 23.2 µM), 38.6 µg/mL (≈ 121 µM), more than 2.47 µg/mL and 39.2%.
On the same counts, the results for `COc1cc(NCc2cccc(C)n2)ccc1-c1cnco1` [Compound 57, N-(6-methylpyridin-2-ylmethyl)-3-methoxy-4-(oxazol-5-yl) aniline] are 42.8 µg/mL (≈ 145 µM), 1.88 µg/mL (≈ 6.37 µM), 36.7 µg/mL (≈ 124 µM), 2.47 µg/mL (≈ 8.36 µM) and 45.1%.
Taken in the same sequence, the figures for `COc1ccc(CNc2ccc(-c3cnco3)c(OC)c2)cc1` [Compound 61, N-(4-methoxybenzyl)-3-methoxy-4-(oxazol-5-yl) aniline] were 36.2 µg/mL (≈ 117 µM), 1.06 µg/mL (≈ 3.42 µM), 29.4 µg/mL (≈ 94.8 µM), 0.64 µg/mL (≈ 2.06 µM) and 73.7%.
As to `COc1ccccc1/C=C/CNc1ccc(-c2cnco2)c(OC)c1` [Compound 63], the IC50 in [3] is 19.4 µg/mL (≈ 57.5 µM); in data set [5], 2.47 µg/mL (≈ 7.34 µM); in the data set on mouse spleen cell, 2.22 µg/mL (≈ 6.6 µM); in [6] it was 14.1 µg/mL (≈ 42 µM); in [10], 0.47 µg/mL (≈ 1.4 µM).
